The values below are quoted from earlier work in patent publication US10299493B2, “Dietary supplement compositions with enhanced delivery matrix, gummies, chocolates, atomizers and powders containing same, and methods of making same” (priority 2013, dated 2019).

The conditions of the series: temperature of 20° C.

Structures are written as SMILES.

`C/C=C/C=C/C(=O)[O-].[K+]` [Potassium sorbate]: the solubility in water was 58.2%.
